Results as given in ChEMBL document CHEMBL1123299, “New antiarrhythmic agents. 2,2,5,5-Tetramethyl-3-pyrroline-3-carboxamides and 2,2,5,5-tetramethylpyrrolidine-3-carboxamindes” (J Med Chem, 1986).

How the values were obtained:
[1] = Acute toxicity determined after intravenal administration in mice; format: organism-based; settings: mouse, in vivo, iv
Rattus norvegicus [2] = assay: Effective dose against aconitine-induced arrhythmia after intravenal administration in anesthetized rats; format: functional
Rattus norvegicus [3] = species: Rattus norvegicus; assay: Relative potency with reference to quinidine; format: functional
Rattus norvegicus [4] = assay: Tested for incidence of arrhythmias in rats after a intravenal administration of 2 mg/kg expressed as no. of positive cases out of no. of tested cases (10); format: functional
Rattus norvegicus [5] = assay: Incidence of arrhythmias in rats after a intravenal administration at 4 mg/kg, expressed as no. of positive cases out of no. of tested cases (10); format: functional
Cavia porcellus [6] = assay: Amount of ouabain needed for production of ventricular extra-systoles at a dose of 2 mg/kg (iv given 5 min prior) in guinea pig; format: functional, Cardiac ventricle
Cavia porcellus [7] = assay: Amount of ouabain needed for production of ventricular fibrillation at a dose of 2 mg/kg (iv given 5 min prior) in guinea pig; format: functional, Cardiac ventricle
Cavia porcellus [8] = assay: Amount of ouabain needed for production of ventricular arrhythmias that causes death in guinea pig by cardiac arrest at a dose of 2 mg/kg iv given 5 min prior; format: functional, Cardiac ventricle

| Compound | LD50 [1] | ED150 (Rattus norvegicus [2]) | Relative potency (Rattus norvegicus [3]) | No. of positive cases (Rattus norvegicus [4]) | No. of positive cases (Rattus norvegicus [5]) | Average dose (Cavia porcellus [6]) | Average dose (Cavia porcellus [7]) | Average dose (Cavia porcellus [8]) |
| --- | --- | --- | --- | --- | --- | --- | --- | --- |
| C=CCc1ccc(OC(C)C(=O)NCCNC(=O)C2=CC(C)(C)NC2(C)C)c(OC)c1 (centres undefined) | 9.3 mg/kg | 2.8 mg/kg | 4.3 | 7 | – | – | – | – |
| CC1(C)C=C(C(=O)NCCCNCc2ccccc2OCc2ccccc2)C(C)(C)N1 | 9 mg/kg | 0.6 mg/kg | 19.8 | 10 | – | – | – | – |
| C=CCOc1ccccc1CNCCCNC(=O)C1CC(C)(C)NC1(C)C (centres undefined) | 13 mg/kg | 2.1 mg/kg | 5.7 | 10 | – | – | – | – |
| C=CCc1cc(C)ccc1OCC(=O)NCCCNC(=O)C1=CC(C)(C)NC1(C)C | – | – | 4.9 | 8 | – | – | – | – |
| CC1(C)C=C(C(=O)NCCCNCc2ccc(OCc3ccccc3)cc2)C(C)(C)N1 | 20 mg/kg | 1.3 mg/kg | 9.2 | 8 | – | – | – | – |
| CC1(C)C=C(C(=O)NCC(O)CNCc2cccs2)C(C)(C)N1 (centres undefined) | 49 mg/kg | 7.6 mg/kg | 1.6 | – | 8 | – | – | – |
| CC1(C)C=C(C(=O)NCCCNCc2cccc(Oc3ccccc3)c2)C(C)(C)N1 | 11 mg/kg | 0.96 mg/kg | 12.4 | 10 | – | – | – | – |
| COc1cc(OCc2ccccc2)ccc1CNCCCNC(=O)C1=CC(C)(C)NC1(C)C | 13 mg/kg | 0.69 mg/kg | 17.2 | – | 10 | – | – | – |
| Cc1cccc(C)c1NC(=O)C(C)NCCCNC(=O)C1CC(C)(C)NC1(C)C (centres undefined) | 39 mg/kg | 2.3 mg/kg | 5.1 | – | 10 | – | – | – |
| C=CCc1cc(C)ccc1OCC(=O)NCCNC(=O)C1=CC(C)(C)NC1(C)C | 19 mg/kg | – | – | 3 | – | – | – | – |
| C=CCOc1c(CNCCCNC(=O)C2=CC(C)(C)NC2(C)C)cccc1OC | 15 mg/kg | 1.7 mg/kg | 7 | – | 10 | – | – | – |
| C=CCOc1ccc(CNCCCNC(=O)C2=CC(C)(C)NC2(C)C)cc1 | 28 mg/kg | 2.9 mg/kg | 4.1 | – | 6 | – | – | – |
| CC1(C)C=C(C(=O)NCCCNCc2ccccc2OCC(N)=O)C(C)(C)N1 | 10 mg/kg | – | – | 1 | – | – | – | – |
| C/C=C/c1ccc(OCC(=O)NCC(C)(C)CNC(=O)C2=CC(C)(C)NC2(C)C)c(OC)c1 | 31 mg/kg | 3.9 mg/kg | 3.1 | – | 6 | – | – | – |
| COc1ccccc1CNCCCNC(=O)C1=CC(C)(C)NC1(C)C.Cl | 7.9 mg/kg | 1.6 mg/kg | 7.4 | – | 10 | – | – | – |
| CC1(C)C=C(C(=O)NCC(O)CNC(=O)c2cccs2)C(C)(C)N1 (centres undefined) | 65 mg/kg | 6.7 mg/kg | 1.77 | – | 7 | – | – | – |
| CC1(C)C=C(C(=O)NCCCNCc2cccs2)C(C)(C)N1 | 65 mg/kg | 5.3 mg/kg | 2.2 | – | 7 | – | – | – |
| C/C=C/c1ccc(OCC(=O)NCCCNC(=O)C2=CC(C)(C)NC2(C)C)c(OC)c1 | 30 mg/kg | – | 5.4 | – | 7 | 0.2011 mg/kg | 0.2509 mg/kg | 0.2847 mg/kg |

| Compound | LD50 [1] | ED150 (Rattus norvegicus [2]) | Relative potency (Rattus norvegicus [3]) | No. of positive cases (Rattus norvegicus [4]) | No. of positive cases (Rattus norvegicus [5]) | Average dose (Cavia porcellus [6]) | Average dose (Cavia porcellus [7]) | Average dose (Cavia porcellus [8]) |
| --- | --- | --- | --- | --- | --- | --- | --- | --- |
| CC1(C)CC(C(=O)NCCCNCc2ccccc2Cl)C(C)(C)N1 (centres undefined) | 31 mg/kg | 2.4 mg/kg | 4.9 | – | 7 | – | – | – |
| Cc1cccc(C)c1NC(=O)CNC(=O)C1CC(C)(C)NC1(C)C (centres undefined) | 40 mg/kg | 0.84 mg/kg | 14.2 | – | 10 | 0.1969 mg/kg | 0.2909 mg/kg | 0.3199 mg/kg |
| C=CCOc1ccc(CNCCCNC(=O)C2=CC(C)(C)NC2(C)C)cc1OC | 21 mg/kg | 2.2 mg/kg | 5.4 | – | 10 | – | – | – |
| CC1(C)C=C(C(=O)NCCCNCc2ccc(Oc3ccccc3)cc2)C(C)(C)N1 | 23 mg/kg | 1.3 mg/kg | 9.2 | – | 10 | – | – | – |
| COc1cc(CNCCCNC(=O)C2=CC(C)(C)NC2(C)C)ccc1O | 8.7 mg/kg | 0.47 mg/kg | 25.3 | 10 | – | – | – | – |
| Cc1cccc(C)c1NC(=O)CNC(=O)C1=CC(C)(C)NC1(C)C | 53 mg/kg | 2.4 mg/kg | 4.9 | – | 10 | 0.2142 mg/kg | 0.2842 mg/kg | 0.3314 mg/kg |
| CC1(C)C=C(C(=O)NCCCNCc2cccc(OCc3ccccc3)c2)C(C)(C)N1 | 7 mg/kg | 0.74 mg/kg | 16.1 | 10 | – | – | – | – |
| C=C[C@H]1CN2CC[C@H]1C[C@@H]2[C@@H](O)c1ccnc2ccc(OC)cc12 [QUINIDINE] | – | – | – | – | – | 0.1954 mg/kg | 0.2911 mg/kg | 0.3139 mg/kg |
| COc1cccc(CNCCCNC(=O)C2=CC(C)(C)NC2(C)C)c1O | 26 mg/kg | 3.4 mg/kg | 3.5 | – | 10 | – | – | – |
| Cc1cccc(C)c1NC(=O)C(C)NC(=O)C1=CC(C)(C)NC1(C)C (centres undefined) | 15 mg/kg | 1.9 mg/kg | 6.3 | – | 10 | 0.2089 mg/kg | 0.3253 mg/kg | 0.361 mg/kg |
| CC1(C)C=C(C(=O)NCCCNCc2cccc(O)c2)C(C)(C)N1.Cl | 13 mg/kg | 8.5 mg/kg | 1.4 | – | 4 | – | – | – |
| COc1ccc(CNCCCNC(=O)C2=CC(C)(C)NC2(C)C)c(OC)c1 | 16 mg/kg | 1.7 mg/kg | 7 | – | 9 | – | – | – |
| C=CCOc1cccc(CNCCCNC(=O)C2=CC(C)(C)NC2(C)C)c1 | 34 mg/kg | 2.7 mg/kg | 4.4 | 7 | – | – | – | – |
| CC1(C)C=C(C(=O)NCCNCc2ccccc2O)C(C)(C)N1 | 30 mg/kg | 1 mg/kg | 11.9 | – | 10 | – | – | – |
| Cc1cccc(C)c1NC(=O)C(NC(=O)C1=CC(C)(C)NC1(C)C)c1ccccc1 (centres undefined) | 7.6 mg/kg | 0.78 mg/kg | 15.3 | 10 | – | – | – | – |
| COc1cccc(CNCCCNC(=O)C2=CC(C)(C)NC2(C)C)c1OCc1ccccc1 | 6.2 mg/kg | 0.21 mg/kg | 56.7 | – | 10 | – | – | – |
| CC1(C)C=C(C(=O)NCCNCc2ccc(Cl)cc2)C(C)(C)N1 | 82 mg/kg | 5.4 mg/kg | 2.2 | – | 5 | – | – | – |
| CC1(C)C=C(C(=O)NCCCN2C(=O)c3ccccc3C2=O)C(C)(C)N1 | – | – | 4.6 | 10 | – | 0.2369 mg/kg | 0.3455 mg/kg | 0.3825 mg/kg |
